In assay [1] the target is T1, ADAMTS-5 (Homo sapiens, UniProt Q9UNA0).
T1 sequence (Q9UNA0 262-930): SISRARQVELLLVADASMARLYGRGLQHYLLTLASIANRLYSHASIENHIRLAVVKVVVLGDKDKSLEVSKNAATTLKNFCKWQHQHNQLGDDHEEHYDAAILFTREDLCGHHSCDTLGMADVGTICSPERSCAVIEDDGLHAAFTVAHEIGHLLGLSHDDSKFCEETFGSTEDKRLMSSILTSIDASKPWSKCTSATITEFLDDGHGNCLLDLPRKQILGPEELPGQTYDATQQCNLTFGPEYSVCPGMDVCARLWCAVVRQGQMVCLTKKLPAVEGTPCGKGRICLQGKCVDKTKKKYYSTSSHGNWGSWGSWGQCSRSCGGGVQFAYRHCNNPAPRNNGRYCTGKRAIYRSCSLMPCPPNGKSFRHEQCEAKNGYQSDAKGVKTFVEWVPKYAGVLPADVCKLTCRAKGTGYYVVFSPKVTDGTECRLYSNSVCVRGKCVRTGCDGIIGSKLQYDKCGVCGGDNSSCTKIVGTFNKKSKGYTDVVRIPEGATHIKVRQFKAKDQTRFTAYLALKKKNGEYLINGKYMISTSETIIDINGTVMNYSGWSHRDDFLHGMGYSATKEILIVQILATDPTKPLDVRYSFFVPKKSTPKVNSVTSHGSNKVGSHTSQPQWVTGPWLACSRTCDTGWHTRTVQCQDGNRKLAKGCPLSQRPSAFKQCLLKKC
Briefly: Metalloprotease inhibition assay (Ki). It counts as biochemical.

Assay [2] concerns MMP-12. Details: method as in PMID 21212406. The following applies: high fat-fed apoE-/- mice ref 3; cited from earlier work.
Assay [3] concerns the target TACE (Homo sapiens, UniProt P78536). Briefly: Metalloprotease inhibition assay (Ki). It counts as biochemical.
The target of assay [4] is T2, hMMP-3 (Homo sapiens, UniProt P08254).
T2 construct: purchased R&D Systems (Minneapolis, MN)
T2 sequence (P08254 100-477): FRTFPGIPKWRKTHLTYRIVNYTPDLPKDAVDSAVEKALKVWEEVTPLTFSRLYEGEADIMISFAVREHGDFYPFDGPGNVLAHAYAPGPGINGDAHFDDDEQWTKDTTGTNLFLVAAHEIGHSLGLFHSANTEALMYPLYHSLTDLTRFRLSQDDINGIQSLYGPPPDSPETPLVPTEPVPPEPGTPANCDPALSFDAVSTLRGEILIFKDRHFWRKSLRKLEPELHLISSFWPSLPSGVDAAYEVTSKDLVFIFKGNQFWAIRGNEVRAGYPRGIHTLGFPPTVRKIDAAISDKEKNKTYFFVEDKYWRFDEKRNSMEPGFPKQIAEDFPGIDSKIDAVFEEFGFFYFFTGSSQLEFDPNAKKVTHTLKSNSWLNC
The experiment in a line: MMP inhibition assay (Ki). It counts as biochemical. As for the experimental part:
(§1) Human MMP-8, -9, -12 and -13 were produced in the laboratory. Other MMPs were purchased from R&D Systems (Minneapolis, MN). MMP inhibition assays were carried out as previously described. Pro-MMPs were pre-activated by p-aminophenylmercuric acetate following the method described by R&D Systems. Titration experiments were carried out to determine active enzyme concentration for each MMP prior to the assay. For each probe, the percentage of inhibition was determined from five different concentrations in triplicates, chosen to reach a range of 20–80% inhibition. Ki values were determined using the method proposed by Horovitz and Leviski[45].

In assay [5] the target is T3, hMMP-2 (Homo sapiens, UniProt P08253).
T3 construct: purchased R&D Systems (Minneapolis, MN)
T3 sequence (P08253 110-660): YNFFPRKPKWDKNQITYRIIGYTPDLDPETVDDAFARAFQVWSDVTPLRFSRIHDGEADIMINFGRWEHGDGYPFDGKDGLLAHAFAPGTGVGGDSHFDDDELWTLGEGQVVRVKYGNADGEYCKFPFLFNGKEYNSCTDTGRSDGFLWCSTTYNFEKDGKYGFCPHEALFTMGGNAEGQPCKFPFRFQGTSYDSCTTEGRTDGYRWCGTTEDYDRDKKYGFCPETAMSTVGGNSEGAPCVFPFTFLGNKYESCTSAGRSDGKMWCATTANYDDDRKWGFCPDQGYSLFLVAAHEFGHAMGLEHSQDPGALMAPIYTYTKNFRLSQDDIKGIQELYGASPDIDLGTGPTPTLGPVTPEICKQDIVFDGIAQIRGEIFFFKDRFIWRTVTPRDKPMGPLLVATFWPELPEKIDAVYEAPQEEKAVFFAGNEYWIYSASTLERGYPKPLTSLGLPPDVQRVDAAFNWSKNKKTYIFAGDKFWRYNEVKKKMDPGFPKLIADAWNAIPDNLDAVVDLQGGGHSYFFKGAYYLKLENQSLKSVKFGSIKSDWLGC
Briefly: MMP inhibition assay (Ki). The assay is classed as biochemical. As for the experimental part: as §1

Assay [6] concerns the target T4, hMMP-14 (Homo sapiens, UniProt P50281).
T4 construct: purchased R&D Systems (Minneapolis, MN)
Briefly: MMP inhibition assay (Ki). The assay is classed as biochemical. As for the experimental part: as §1

For assay [7], the target named is T5, hMMP-13 (Homo sapiens, UniProt P45452).
T5 construct: made in house
Briefly: MMP inhibition assay (Ki). It counts as biochemical. As for the experimental part: as §1

Assay [8] has as its target T6, hMMP-9 (Homo sapiens, UniProt P14780).
T6 construct: made in house
The experiment in a line: MMP inhibition assay (Ki). The assay is classed as biochemical. As for the experimental part:
as §1

Assay [9] addresses T7, hMMP-1 (Homo sapiens, UniProt P03956).
T7 construct: purchased R&D Systems (Minneapolis, MN)
T7 sequence (P03956 100-469): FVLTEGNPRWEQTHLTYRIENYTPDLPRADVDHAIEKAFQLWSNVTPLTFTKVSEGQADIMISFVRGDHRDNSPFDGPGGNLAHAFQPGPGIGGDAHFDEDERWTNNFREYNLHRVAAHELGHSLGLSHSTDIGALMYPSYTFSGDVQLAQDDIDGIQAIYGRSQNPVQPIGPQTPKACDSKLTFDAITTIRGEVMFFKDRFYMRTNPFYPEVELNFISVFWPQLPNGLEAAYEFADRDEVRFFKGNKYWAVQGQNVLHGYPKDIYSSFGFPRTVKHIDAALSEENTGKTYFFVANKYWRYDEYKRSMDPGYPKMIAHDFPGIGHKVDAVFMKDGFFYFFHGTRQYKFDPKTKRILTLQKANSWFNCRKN
The experiment in a line: MMP inhibition assay (Ki). The assay is classed as biochemical. Here is the method: as §1

Assay [10] deals with T8, hMMP-10 (Homo sapiens, UniProt P09238).
T8 construct: purchased R&D Systems (Minneapolis, MN)
T8 sequence (P09238 99-476): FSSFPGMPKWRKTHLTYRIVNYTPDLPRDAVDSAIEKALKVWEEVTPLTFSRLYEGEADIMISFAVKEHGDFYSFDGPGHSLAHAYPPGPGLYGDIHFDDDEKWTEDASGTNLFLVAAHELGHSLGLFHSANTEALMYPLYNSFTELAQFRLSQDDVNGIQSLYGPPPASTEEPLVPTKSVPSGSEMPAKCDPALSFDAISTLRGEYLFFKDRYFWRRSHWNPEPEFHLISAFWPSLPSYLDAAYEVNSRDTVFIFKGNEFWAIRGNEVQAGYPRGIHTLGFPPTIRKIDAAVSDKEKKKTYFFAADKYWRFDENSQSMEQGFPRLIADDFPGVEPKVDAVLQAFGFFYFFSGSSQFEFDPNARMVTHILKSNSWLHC
The experiment in a line: MMP inhibition assay (Ki). The assay is classed as biochemical. As for the experimental part:
as §1

In assay [11] the target is T9, hMMP-8 (Homo sapiens, UniProt P22894).
T9 construct: made in house
T9 sequence (P22894 101-467): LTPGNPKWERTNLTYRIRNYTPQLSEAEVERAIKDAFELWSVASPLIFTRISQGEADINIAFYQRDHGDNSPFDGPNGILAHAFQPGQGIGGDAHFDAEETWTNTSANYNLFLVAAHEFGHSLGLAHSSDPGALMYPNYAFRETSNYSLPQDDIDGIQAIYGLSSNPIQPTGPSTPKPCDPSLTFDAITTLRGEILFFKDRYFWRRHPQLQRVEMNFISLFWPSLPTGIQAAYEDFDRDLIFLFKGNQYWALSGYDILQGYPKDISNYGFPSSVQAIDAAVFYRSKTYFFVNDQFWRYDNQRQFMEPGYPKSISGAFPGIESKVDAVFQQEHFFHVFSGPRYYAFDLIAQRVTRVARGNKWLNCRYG
The experiment in a line: MMP inhibition assay (Ki). It counts as biochemical. Here is the method: as §1

In assay [12] the target is T10, hMMP-7 (Homo sapiens, UniProt P09237).
T10 construct: purchased R&D Systems (Minneapolis, MN)
T10 sequence (P09237 95-267): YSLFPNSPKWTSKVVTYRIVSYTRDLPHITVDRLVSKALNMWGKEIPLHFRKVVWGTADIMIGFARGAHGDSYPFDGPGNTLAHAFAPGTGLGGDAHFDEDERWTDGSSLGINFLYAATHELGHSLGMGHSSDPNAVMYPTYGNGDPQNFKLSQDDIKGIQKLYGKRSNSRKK
The experiment in a line: MMP inhibition assay (Ki). It counts as biochemical. Here is the method:
as §1

Assay [13] deals with hMMP-12. The experiment in a line: MMP inhibition assay (Ki). It counts as biochemical, human. Here is the method: as §1
In assay [14] the target is T11, MMP-12 (Mus musculus, UniProt P34960).
T11 construct: from tissue; host or cells: CaCl2-induced aneurysmal left carotid artery of apoE-deficient mice (in vivo imaging and cryostat sections)
T11 sequence (P34960 110-473): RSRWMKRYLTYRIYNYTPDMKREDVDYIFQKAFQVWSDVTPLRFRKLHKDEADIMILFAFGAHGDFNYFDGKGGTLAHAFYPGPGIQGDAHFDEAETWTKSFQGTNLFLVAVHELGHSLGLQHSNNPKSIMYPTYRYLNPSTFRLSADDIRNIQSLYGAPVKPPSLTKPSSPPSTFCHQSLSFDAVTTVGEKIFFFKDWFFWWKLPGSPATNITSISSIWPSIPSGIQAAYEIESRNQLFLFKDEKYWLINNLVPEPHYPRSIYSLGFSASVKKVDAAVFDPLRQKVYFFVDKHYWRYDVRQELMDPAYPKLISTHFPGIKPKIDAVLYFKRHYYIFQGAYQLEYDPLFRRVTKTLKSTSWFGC
The experiment in a line: Co-immunostaining of carotid artery sections with probe, fluorescence microscopy. The arrangement: species or system mice. Here is the method: Hematoxylin and eosin (H&E) staining and immunostaining of tissues were performed according to standard protocols on 5-μm-thick cryostat sections. For immunostaining, primary antibodies included anti-MMP-12 (sc-30072, Santa Cruz Biotechnology, Dallas, TX), anti-CD68 (AbD serotec, Raleigh, NC), anti-F4/80 (Cedarlane, Burlington, NC) and anti-CD31 (BD Pharmingen, San Jose, CA). Isotype-matched antibodies were used as controls. For co-immunostaining, tissue sections were fixed with acetone, and stained with the antibody followed by probe 2. Nuclei were stained with DAPI using ProLong® Gold Antifade Mountant with DAPI (Molecular Probes, Eugene, OR). The slides were photographed using a Spot RT3 camera (Diagnostic Instruments, Sterling Heights, MI) and a Zeiss Axiophot fluorescence microscope (Carl Zeiss Microscopy GmbH, Jena, Germany).

Consider three compounds from paper PMC5137160, “Optical imaging of MMP-12 active form in inflammation and aneurysm” (Scientific Reports, 2016).

Sequence of TACE (P78536 215-824): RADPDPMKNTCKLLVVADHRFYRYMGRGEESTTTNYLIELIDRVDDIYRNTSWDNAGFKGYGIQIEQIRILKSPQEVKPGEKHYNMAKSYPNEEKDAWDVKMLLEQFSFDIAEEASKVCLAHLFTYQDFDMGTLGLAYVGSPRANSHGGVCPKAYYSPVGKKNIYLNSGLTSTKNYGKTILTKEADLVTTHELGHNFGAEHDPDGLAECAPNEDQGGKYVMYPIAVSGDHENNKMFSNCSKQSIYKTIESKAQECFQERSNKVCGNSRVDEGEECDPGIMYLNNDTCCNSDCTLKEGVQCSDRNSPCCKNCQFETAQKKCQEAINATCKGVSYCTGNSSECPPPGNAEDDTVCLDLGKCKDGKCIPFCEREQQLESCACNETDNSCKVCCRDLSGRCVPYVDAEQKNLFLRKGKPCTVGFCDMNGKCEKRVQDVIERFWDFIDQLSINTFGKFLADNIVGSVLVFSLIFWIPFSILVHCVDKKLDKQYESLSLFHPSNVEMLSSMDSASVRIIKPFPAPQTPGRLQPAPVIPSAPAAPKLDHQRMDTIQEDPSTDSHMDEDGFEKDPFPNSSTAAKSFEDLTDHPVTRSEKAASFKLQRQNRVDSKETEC
T6 sequence (P14780 94-707): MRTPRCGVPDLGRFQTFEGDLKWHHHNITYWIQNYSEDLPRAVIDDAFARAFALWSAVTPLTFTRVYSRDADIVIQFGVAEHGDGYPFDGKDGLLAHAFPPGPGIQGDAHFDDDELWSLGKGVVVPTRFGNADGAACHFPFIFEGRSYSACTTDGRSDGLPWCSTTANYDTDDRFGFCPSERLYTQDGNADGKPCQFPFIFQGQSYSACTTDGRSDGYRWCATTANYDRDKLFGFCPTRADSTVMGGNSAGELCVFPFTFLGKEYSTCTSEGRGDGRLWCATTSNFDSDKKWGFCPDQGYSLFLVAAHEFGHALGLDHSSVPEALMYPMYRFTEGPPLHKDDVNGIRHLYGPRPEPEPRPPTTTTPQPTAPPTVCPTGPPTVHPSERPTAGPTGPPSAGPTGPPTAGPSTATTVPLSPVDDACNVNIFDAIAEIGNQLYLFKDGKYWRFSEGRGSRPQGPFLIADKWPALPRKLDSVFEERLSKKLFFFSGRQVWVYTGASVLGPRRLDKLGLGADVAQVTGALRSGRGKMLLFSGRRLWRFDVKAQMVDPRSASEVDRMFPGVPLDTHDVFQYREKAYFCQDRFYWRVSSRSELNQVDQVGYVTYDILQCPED

As to `NC(=O)[C@H](CCC(=O)O)NC(=O)[C@H](CCC(=O)O)NC(=O)[C@H](Cc1cc(-c2ccc(-c3cccc(Cl)c3)cc2)no1)CP(=O)(O)c1ccc(Br)cc1` [RXP470.1, reference compound], the Ki (commonly a dissociation constant, usually derived from enzyme kinetics or from competition with a known ligand) was 6100 ± 100 nM in assay [1]; over 10000 nM in [3]; 80 ± 2 nM in assay [4]; 52 ± 4 nM in [5]; 150 ± 21 nM in assay [6]; 11 ± 10 nM in assay [7]. The Ki in [8] is 170 ± 50 nM; in assay [9] it was over 10000 nM; in assay [10], 17 ± 20 nM; in assay [11], 120 ± 40 nM; in assay [12] it was 518 ± 40 nM; in assay [13], 0.26 nM. For the same compound, the “effect on atherosclerotic plaque” value in [2] is “reduces atherosclerotic plaque area and promotes a fibrous plaque phenotype”.

In the case of `CC[N+]1=C(/C=C/C=C/C=C2/N(CCCCCC(=O)NCCCOCCOCCOCCCNC(=O)[C@H](CCC(=O)O)NC(=O)[C@H](CCC(=O)O)NC(=O)[C@H](Cc3cc(-c4ccc(-c5cccc(Cl)c5)cc4)no3)CP(=O)(O)c3ccc(Br)cc3)c3ccc4c(S(=O)(=O)[O-])cc(S(=O)(=O)O)cc4c3C2(C)C)C(C)(C)c2c1ccc1c(S(=O)(=O)O)cc(S(=O)(=O)O)cc21` [probe 1], the inhibition constant Ki in assay [1] is 1490 ± 129 nM; in [3] it was over 10000 nM; in assay [4] it was 31 ± 2 nM; in assay [5], 973 ± 63 nM; in assay [6], 1130 ± 61 nM; in assay [7], 74 ± 70 nM. The Ki in assay [8] is 4167 ± 41 nM; in [9], over 10000 nM; in [10], 71 ± 50 nM; in assay [11], 2070 ± 22 nM; in assay [12], 1623 ± 13 nM; in assay [13], 0.9 nM. Also, in assay [7] (relative to RXP470.1), the “loss of potency toward MMP-13 compared with RXP470.1” value was “less than ten times”. For the same compound, the “loss of potency toward MMP-10 compared with RXP470.1” value in assay [10] (relative to RXP470.1) is listed as “less than ten times”.

As to `CC[N+]1=C(/C=C/C=C2/N(CCCCCC(=O)NCCCOCCOCCOCCCNC(=O)[C@H](CCC(=O)O)NC(=O)[C@H](CCC(=O)O)NC(=O)[C@H](Cc3cc(-c4ccc(-c5cccc(Cl)c5)cc4)no3)CP(=O)(O)c3ccc(Br)cc3)c3ccc(S(=O)(=O)[O-])cc3C2(C)C)C(C)(C)c2cc(S(=O)(=O)O)ccc21` [probe 2], the “probe co-localization with F4/80 positive cells” value in assay [14] (aneurysmal carotid artery sections) is “co-localized”. In addition, in assay [14] (aneurysmal left carotid artery sections), the “probe signal co-localization with MMP-12” value is on record as “partially co-localized”. The Ki in assay [1] was over 10000 nM; in assay [3] it was over 10000 nM; in assay [4] it was 188 ± 22 nM; in assay [5] it was 1070 ± 18 nM; in assay [6], 802 ± 58 nM; in assay [7] it was 136 ± 15 nM. The Ki is 8760 ± 50 nM in [8]; 7212 ± 66 nM in [9]; 1440 ± 35 nM in assay [11]; 1850 ± 71 nM in assay [12]; 6.1 ± 0.1 nM in [13]. Further, the “loss of potency (drop in affinity) toward MMP-9 compared with RXP470.1” value in assay [8] (factor relative to RXP470.1) is reported as 50. In addition, the “difference in potency towards MMP-12, factor relative to probe 1” value in assay [13] (relative to probe 1) is 7.
